Results published in patent US20120207821A1, “Liposomal formulation and use thereof” (priority 2005, published 2012).

Tests used:
[1] = system: Leishmania donovani, AG83; assay: In vivo efficacy in established infection model (8 weeks post infection); conditions: BALB/c mice, single i.v. dose 8 weeks post infection, 30 days post treatment, SAG 0.3-0.4 g/kg body wt.
Text: Inbred mice of 4-6 weeks old, weigh 20 g and of any sex, strain BALB/c were infected with Leishmania donovani, AG83, by intravenous inoculation with 2.5×10^7 amastigotes from the spleen of an infected hamster. Eight weeks after inoculation, the mice were divided into groups of 4-5 animals and administered at a single dose intravenously into the tail vein with optimal dose of free SAG (0.3 g/kg wt.) or empty PC-SA liposome (1.1 g/kg wt.) or SAG entrapped PC-SA liposome (0.015 g/kg of SAG into 1.1 g/kg body wt.) or SAG entrapped in PC-Chol liposome (0.015 g/kg of SAG into 1.25 g/kg wt. of lipid). Mice were sacrificed on 30 days post treatment. Livers and spleens were excised and weighed. Bone marrow was also isolated from femur bone and smeared on glass slides. Impressions smears were prepared from the cut surface of the liver and spleen. The impression smears were stained with Giemsa, and number of amastigotes counted microscopically per 500 cell nuclei. The results of 30 days post treatment are shown below and expressed as percentage suppression in parasitemia with respect to untreated infected.

[2] = system: Leishmania donovani, AG83; assay: In vivo activity screening in established infection model with graded doses to calculate 50% effective dose; conditions: for % Inhibition of liver parasite level / % Inhibition of spleen parasite level: BALB/c mice, i.v., 30 days post treatment
Text: Inbred mice of 4-6 weeks old, weigh 20 g and of any sex, strain BALB/c were infected with Leishmania donovani, AG83, by intravenous inoculation with 2.5×10^7 amastigotes from the spleen of an infected hamster. Eight weeks after inoculation, the mice were divided into groups of 4-5 animals and dosed intravenously into the tail vein with graded dose of free SAG, empty PC-SA liposome, or SAG entrapped PC-SA liposome. Mice were sacrificed on 30 days post treatment. The livers and spleens were excised and weighed. Impressions smears were prepared from the cut surface of the liver and spleen. The impression smears were stained with Giemsa, and number of amastigotes counted microscopically per 500 cell nuclei. The results of 30 days post treatment are expressed as percentage suppression in parasite burden in compared to infected but untreated mice. Thereby, the dosage necessary to reduce the parasite count to 50% of the untreated group could be calculated.

[3] = system: Leishmania donovani, AG83; assay: In vivo activity screening in chronic infection model (12 weeks post infection); conditions: BALB/c mice, single i.v. dose 12 weeks post infection, 30 days post treatment; SAG 0.015-0.02 g/kg body wt.
Text: Inbred mice of 4-6 weeks old, weigh 20 g and of any sex, strain BALB/c were infected with Leishmania donovani, AG83, by intravenous inoculation with 2.5×10^7 amastigotes from the spleen of an infected hamster. Twelve weeks after inoculation, the mice were divided into groups of 4-5 animals and dosed intravenously into the tail vein with empty PC-SA liposome (1-1.1 g/kg body wt.), free SAG (0.015-0.020 g/kg body wt.) or equivalent amount of SAG entrapped in PC-SA liposome (0.015 g/kg of SAG in 1-1.1 g/kg body wt of liposome). Mice were sacrificed on 30 days post treatment. Livers and spleens were excised and weighed. Impressions smears were prepared from the cut surface of the liver and spleen. The impression smears were stained with Giemsa, and number of amastigotes counted microscopically per 500 cell nuclei. The results of 30 days post treatment are shown below and expressed percentage suppression in parasitemia with respect to untreated infected control calculated.

[4] = system: Leishmania donovani GE1F8R strain; assay: In vivo efficacy assay against SAG-resistant strain; conditions: BALB/c mice, i.v. 8 weeks after inoculation, 30 days post treatment
Procedure: Inbred mice of 4-6 weeks old, weigh […] and of any sex, strain BALB/c were infected with Leishmania donovani GE1F8R strain by intravenous inoculation with 2.5×10^7 amastigotes from the spleen of an infected hamster. Eight weeks after inoculation, the mice were divided into groups of 4-5 animals and dosed intravenously into the tail vein with optimal dose of free SAG, equivalent amount of free SAG, empty PC-SA liposome or SAG entrapped PC-SA liposome ([…]). Mice were sacrificed on 30 days post treatment. Livers and spleens were excised and weighed. Bone marrow was also isolated and smeared on glass slides. Impressions smears were prepared from the cut surface of the liver and spleen. The impression smears were stained with Giemsa, and number of amastigotes counted microscopically per 500 cell nuclei. The results of 30 days post treatment are expressed as Leishman Donovan units and percentage suppression in parasitemia with respect untreated infected control were calculated.

[5] = liver parasite level, dose expressed as SAG
[6] = spleen parasite level, dose expressed as SAG

Molecule: sodium antimony gluconate [SAG]
- % Inhibition of liver parasite level [1]: 82.322%
- % Inhibition of spleen parasite level [1]: 70%
- % Inhibition of parasite level ([1]; bone marrow): 44.029%
- % Inhibition of liver parasite level ([2]; SAG 0.005 g/kg body wt.): 56.55%
- % Inhibition of spleen parasite level ([2]; SAG 0.005 g/kg body wt.): 41.27%
- % Inhibition of liver parasite level ([2]; SAG 0.010 g/kg body wt.): 56.7%
- % Inhibition of spleen parasite level ([2]; SAG 0.010 g/kg body wt.): 50.95%
- % Inhibition of liver parasite level ([2]; SAG 0.050 g/kg body wt.): 61.29%
- % Inhibition of spleen parasite level ([2]; SAG 0.050 g/kg body wt.): 55.67%
- % Inhibition of liver parasite level ([2]; SAG 0.10 g/kg body wt.): 88.03%
- % Inhibition of spleen parasite level ([2]; SAG 0.10 g/kg body wt.): 65.79%
- % Inhibition of liver parasite level ([2]; SAG 0.30 g/kg body wt.): 92.73%
- % Inhibition of spleen parasite level ([2]; SAG 0.30 g/kg body wt.): 70.49%
- % Inhibition of liver parasite level ([2]; SAG 0.50 g/kg body wt.): 96.6%
- % Inhibition of spleen parasite level ([2]; SAG 0.50 g/kg body wt.): 80.33%
- ED50 (+S.E) Liver, SAG [2, 5]: 0.012 + 0.004 g/kg body wt.
- ED90 (+S.E) Liver, SAG [2, 5]: 0.347 + 0.005 g/kg body wt.
- ED50 (+S.E) Spleen, SAG [2, 6]: 0.145 + 0.020 g/kg body wt.
- ED90 (+S.E) Spleen, SAG [2, 6]: 0.493 + 0.028 g/kg body wt.
- % Inhibition of liver parasite level [3]: 50.88%
- % Inhibition of spleen parasite level [3]: 26.69%
- % Inhibition of parasite level ([4]; bone marrow, SAG 0.015-0.02 g/kg body wt.): 0%
- % Inhibition of parasite level ([4]; bone marrow, SAG 0.3 g/kg body wt.): 16.836%
- % Inhibition of parasite level ([4]; liver, SAG 0.015-0.02 g/kg body wt.): 0%
- % Inhibition of parasite level ([4]; liver, SAG 0.3 g/kg body wt.): 5.309%
- % Inhibition of parasite level ([4]; spleen, SAG 0.015-0.02 g/kg body wt.): 0%
- % Inhibition of parasite level ([4]; spleen, SAG 0.3 g/kg body wt.): 16.836%

Molecule: C[C@@H]1[C@H](O)[C@@H](C)/C=C/C=C/C=C/C=C/C=C/C=C/C=C/[C@H](O[C@@H]2O[C@H](C)[C@@H](O)[C@H](N)[C@@H]2O)C[C@@H]2O[C@](O)(C[C@@H](O)C[C@@H](O)[C@H](O)CC[C@@H](O)C[C@@H](O)CC(=O)O[C@H]1C)C[C@H](O)[C@H]2C(=O)O [Amphotericin B]
- % Inhibition of parasite level ([4]; bone marrow, Amphotericin B 0.002-0.0025 g/kg body wt.): 85.091%
- % Inhibition of parasite level ([4]; liver, Amphotericin B 0.002-0.0025 g/kg body wt.): 87.778%
- % Inhibition of parasite level ([4]; spleen, Amphotericin B 0.002-0.0025 g/kg body wt.): 85.091%
